Source: PMC8587000, “Pyridinone Derivatives as Interesting Formyl Peptide Receptor (FPR) Agonists for the Treatment of Rheumatoid Arthritis” (Molecules, 2021)
Read-outs that look alike come from different tables or passages of the source. One block for each compound: values may come before it.

Legend:
[1] = test system: animal models (collagen-induced and antigen-induced arthritis) of RA; set-up: method as in PMID 16697190, PMID 29879657; conditions: dose of 30 mg/kg (i.p.); cited from earlier work
CFA-treated rats [2] = experiment: Paw pressure test in CFA-induced inflammatory arthritis; format: in vivo, rat; conditions: 10 mg/kg p.o. daily for 7 days, day 8 (24 h after last dose), CFA + vehicle 35.2 ± 1.6 g, sham + vehicle 66.4 ± 2.3 g, mean ± SEM, five rats
Protocol: (§1) Male Sprague Dawley rats (Envigo, Varese, Italy) weighing approximately 200–250 g at the beginning of the experimental procedure were used. Animals were housed in Ce.S.A.L. (Centro Stabulazione Animali da Laboratorio, University of Florence) and used at least one week after their arrival. Four rats were housed per cage (size 26 × 41 cm^2); animals were fed a standard laboratory diet, given tap water ad libitum, and kept at 23 ± 1 °C with a 12 h light/dark cycle, light at 7 a.m. All animal manipulations were carried out according to the Directive 2010/63/EU of the European parliament and of the European Union council (22 September 2010) on the protection of animals used for scientific purposes. The ethical policy of the University of Florence complies with the Guide for the Care and Use of Laboratory Animals of the US National Institutes of Health (NIH Publication No. 85–23, revised 1996; University of Florence assurance number: A5278-01). Formal approval to conduct the experiments described was obtained from the Italian Ministry of Health (No. 517/2017, 06/04/2017) and from the Animal Subjects Review Board of the University of Florence. Experiments involving animals have been reported according to ARRIVE guidelines. […]
Nociceptive threshold was determined with an analgesimeter (Ugo Basile, Varese, Italy). […]

CFA-treated rats [3] = experiment: Incapacitance test in CFA-induced inflammatory arthritis; format: in vivo, rat; conditions: 10 mg/kg p.o. daily for 7 days, day 8, CFA + vehicle 57.2 ± 4.0 g, sham + vehicle 3.6 ± 2.5 g, mean ± SEM, five rats
Protocol: as §1, with “A5278-01).” for “A5278-01). Formal approval to conduct the experiments described was obtained from the Italian Ministry of Health (No. 517/2017, 06/04/2017) and from the Animal Subjects Review Board of the University of Florence. Experiments involving animals have been reported according to ARRIVE guidelines.”
Weight bearing changes were measured using an Incapacitance Apparatus (Linton Instrumentation, UK), detecting changes in postural equilibrium after a hind limb injury. […] Data are expressed as the difference between the weight applied to the limb contralateral to the injury and the weight applied to the ipsilateral one (Δ weight).

[4] = test system: rat model of rheumatoid arthritis; set-up: method as in PMID 32388428; conditions: dose of 30 mg/kg/day; cited from earlier work
human neutrophils (hPMN) [5] = test system: human neutrophils (hPMN); set-up: method as in PMID 32388428; conditions: Ca2+ mobilization; cited from earlier work
FPR1 [6] = target: T1, FPR1 (Homo sapiens, UniProt P21462); set-up: method as in PMID 32388428; conditions: Ca2+ mobilization; read-out: FPR1-HL60 EC50; cited from earlier work
T1 construct: expressed in transfected cells; host or cells: HL60 (human promyelocytic leukemia), stably transfected; gift from Dr. Marie-Josephe Rabiet
T1 sequence (P21462 1-350): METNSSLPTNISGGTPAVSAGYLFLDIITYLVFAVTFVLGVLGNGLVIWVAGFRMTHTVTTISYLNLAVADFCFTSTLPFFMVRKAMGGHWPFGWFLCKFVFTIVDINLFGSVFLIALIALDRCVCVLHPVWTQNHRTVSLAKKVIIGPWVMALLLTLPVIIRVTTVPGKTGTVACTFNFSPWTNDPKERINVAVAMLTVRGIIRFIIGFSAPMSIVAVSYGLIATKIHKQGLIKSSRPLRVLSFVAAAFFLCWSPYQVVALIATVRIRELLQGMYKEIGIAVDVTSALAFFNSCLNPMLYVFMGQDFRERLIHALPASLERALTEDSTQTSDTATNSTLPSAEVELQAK

FPR2 [7] = target: T2, FPR2 (Homo sapiens, UniProt P25090); experiment: Ca2+ mobilization in FPR2-transfected HL60 cells; format: cell-based; conditions: for selectivity index (SI) FPR1/FPR2: ratio of EC50 FPR1-HL60 / FPR2-HL60
T2 construct: expressed in transfected cells; host or cells: HL60 (human promyelocytic leukemia), stably transfected; gift from Dr. Marie-Josephe Rabiet
T2 sequence (P25090 1-351): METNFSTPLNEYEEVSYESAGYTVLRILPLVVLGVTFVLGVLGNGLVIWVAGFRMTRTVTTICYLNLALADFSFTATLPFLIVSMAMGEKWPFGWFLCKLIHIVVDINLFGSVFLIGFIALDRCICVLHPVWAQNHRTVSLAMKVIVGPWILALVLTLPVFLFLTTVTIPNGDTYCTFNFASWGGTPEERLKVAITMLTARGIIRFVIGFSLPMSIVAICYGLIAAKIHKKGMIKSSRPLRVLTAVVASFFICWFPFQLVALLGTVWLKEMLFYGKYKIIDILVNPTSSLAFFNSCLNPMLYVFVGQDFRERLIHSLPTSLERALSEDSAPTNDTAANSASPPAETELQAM
Protocol: (§2) Human promyelocytic leukemia HL60 cells stably transfected with FPR1 (FPR1-HL60 cells) or FPR2 (FPR2-HL60 cells) (kind gift from Dr. Marie-Josephe Rabiet, Université Joseph Fourier, Grenoble, France) were cultured in RPMI 1640 medium supplemented with 10% heat-inactivated fetal calf serum, 10 mM HEPES, 100 μg/mL streptomycin, 100 U/mL penicillin, and G418 (1 mg/mL). G418 was removed in the last round of culture before assays were performed.

FPR2 [8] = target: T2, FPR2; set-up: method as in PMID 32388428; conditions: Ca2+ mobilization; read-out: FPR2-HL60 EC50; cited from earlier work
human neutrophils (hPMN) [9] = experiment: Ca2+ mobilization in human neutrophils (hPMN); format: cell-based; conditions: Neutrophil
Description: Blood was collected from healthy donors in accordance with a protocol approved by the Institutional Review Board at Montana State University. Neutrophils were purified from the blood using dextran sedimentation, followed by Histopaque 1077 gradient separation and hypotonic lysis of red blood cells. Isolated neutrophils were washed twice and resuspended in HBSS^-. Neutrophil preparations were routinely >95% pure, as determined by light microscopy, and >98% viable, as determined by trypan blue exclusion.
Changes in intracellular Ca^2+ were measured with a FlexStation II scanning fluorometer (Molecular Devices, Sunnyvale, CA, USA). The cells, suspended in Hank’s balanced salt solution without Ca^2+ and Mg^2+ but with 10 mM HEPES (HBSS^−), were loaded with 1.25 μg/mL Fluo-4 AM dye and incubated for 30 min in the dark at 37 °C. After dye loading, the cells were washed with HBSS^- containing 10 mM HEPES, resuspended in HBSS^+ containing Ca^2+, Mg^2+, and 10 mM HEPES (HBSS^+), and aliquoted into the wells of flat-bottom, half-area-well black microtiter plates (2 × 10^5 cells/well). For the evaluation of direct agonist activity, compounds of interest were added from a source plate containing dilutions of test compounds in HBSS^+, and changes in fluorescence were monitored (λex = 485 nm, λem = 538 nm) every 5 s for 240 s at room temperature after the automated addition of compounds. Maximum change in fluorescence during the first 3 min, expressed in arbitrary units over baseline, was used to determine a response. […] Curve fitting (5–6 points) and calculation of median effective inhibitory concentrations (IC50) were performed by nonlinear regression analysis of the dose–response curves generated using Prism 9 (GraphPad Software, Inc., San Diego, CA, USA).

FPR1 [10] = target: T1, FPR1; experiment: Ca2+ mobilization in FPR1-transfected HL60 cells; format: cell-based
Protocol: as §2

[11] = test system: model of antigen-induced arthritis; set-up: method as in PMID 33493655, PMID 30419493; conditions: increasing neutrophil apoptosis and efferocytosis; cited from earlier work

Compound: CC(C)c1c(NC(=O)Nc2ccc(Cl)cc2)c(=O)n(-c2ccccc2)n1C [Cpd43]
effect on arthritis (tissue inflammation, cartilage damage, synovitis) [1]: significantly reducing the tissue inflammation, cartilage damage, and synovitis

Compound: COc1cccc(-c2cc(C#N)c(=O)n(CC(=O)Nc3ccc(Br)cc3)c2C)c1 [AMC3]
pain threshold (paw pressure test) (CFA-treated rats [2]): 52.4 ± 2.8 g | postural unbalance, Δ Weight (incapacitance test) (CFA-treated rats [3]): 34.6 ± 3.8 g | effect on pain hypersensitivity [4]: completely control pain hypersensitivity | EC50 (human neutrophils (hPMN) [5]): 390 ± 170 nM

selectivity index (SI) FPR1/FPR2 (FPR2 [7]): 8
Compound: CCOC(=O)c1cc(C#N)c(=O)n(CC(=O)Nc2ccc(Br)cc2)c1C [AMC4, reference compound]
EC50 (FPR1 [6]): 3000 ± 400 nM | EC50 (human neutrophils (hPMN) [5]): 830 ± 240 nM | EC50 (FPR2 [8]): 380 ± 90 nM

EC50 (human neutrophils (hPMN) [9]): 20800 ± 4800 nM | EC50 (FPR1 [10]): 18000 ± 3500 nM | Emax (FPR1 [10]; HL-60, read-out: FPR1-HL60 Efficacy (converted)): 110% | melting point: 122 to 124 °C | EC50 (FPR2 [7]): 2400 ± 1200 nM | Emax (FPR2 [7]; HL-60, read-out: FPR2-HL60 Efficacy (converted)): 150% | selectivity index (SI) FPR1/FPR2 (FPR2 [7]): 7.5
Compound: Cc1c(C(=O)N(C)C)cc(C#N)c(=O)n1CC(=O)Nc1ccc(Br)cc1 [Compound 8e, 1-{2-[(4-Bromophenyl)amino]-2-oxoethyl}-5-cyano-N,N,2-trimethyl-6-oxo-1,6-dihydropyridine-3-carboxamide]
Emax (human neutrophils (hPMN) [9]; read-out: hPMN Efficacy (converted)): 110%

Compound: CCC[C@@H](O)c1c(/C=C/[C@@H](O)[C@@H](O)CCCC(=O)OC)nc(C)n1C [AT-01-KG]
anti-inflammatory activity [11]: anti-inflammatory activity
